Source: the pKa sets of Baltruschat and Czodrowski (2020)

conditions: acidic group

| pKa | Compound |
| --- | --- |
| 3.84 | CC(=O)c1cccc(C(=O)O)c1 |
| 2.41 | CC(C)C([NH3+])C(=O)O (stereo unspecified) |
| 9.33 | Nc1cncnc1N |
| 12 | O=C(c1ccccc1)c1cc[nH]n1 |
| 9.92 | Cc1cc(CO)c(O)c(CO)c1 |
| 4.44 | O=C1C(O)=C(/C=C/c2ccccc2)C(=O)c2ccccc21 |
| 10 | N/N=C(\N)c1ncnc2nc[nH]c12 |
| 4.24 | CC(C)Oc1ccccc1C(=O)O |
| 7.8 | CNc1nnc(S(N)(=O)=O)s1 |
| 6.23 | O=S(=O)(Cc1ccccc1)c1ncn[nH]1 |
| 9.79 | COc1cc(CO)ccc1O |
| 3.6 | CC1(C)CC(=O)C2=C(C1)NC1=C(C2)C(=O)CC(C)(C)C1 |
| 7.88 | Cn1c(=O)[nH]c2nc[nH]c2c1=O |
| 10.1 | Cc1cc(O)ccc1O |
| 9.7 | NS(=O)(=O)c1ccccc1 |
| 6.1 | Cc1cc(=O)oc2cc(O)c(Cl)cc12 |
| 1.99 | C[NH+](C)CC(=O)O |
| 7.68 | O=C(Oc1ccc([N+](=O)[O-])cc1[N+](=O)[O-])c1ccc(O)cc1 |
| 8.99 | Oc1cccc(Br)c1 |
| 9 | Cc1nc(-c2ccccc2[S-])[nH]c1C |
| 6.95 | O=c1[nH]ccc2nnnn12 |
| 2.57 | CO[n+]1ccc(O)cc1 |
| 3.89 | CC(C)C(O[C@H]1O[C@@H](C(=O)O)[C@H](O)[C@@H](O)[C@@H]1O)C(C)C |
| 6.13 | O=C1c2ccccc2C(=O)N1O |

| pKa | Compound |
| --- | --- |
| 5.81 | C[n+]1ccc2cccc(O)c2c1 |
| 3.46 | Cc1ccccc1SCC(=O)O |
| 9.09 | O=c1cc(-c2ccccc2)oc2ccc(O)cc12 |
| 4.06 | [NH3+]CCCC(=O)O |
| 6.95 | Nc1ccc(S(=O)(=O)Nc2nccs2)c(Cl)c1 |
| 7.4 | COC(=S)C1c2ccccc2-c2ccccc21 |
| 3.89 | O=C(O)C1c2ccccc2Oc2ccccc21 |
| 4.62 | [NH3+]CCCCCCCCCCC(=O)O |
| 11.5 | CCc1c(C)nn(-c2ccccc2)c1O |
| 9.3 | O=S1(=O)Cc2cc(Br)ccc2N=CN1 |
| 6.53 | NS(=O)(=O)C(F)(F)Br |
| 10 | O/N=C1C=C/C(=N\O)c2cccnc2/1 |
| 8.77 | O=CNO |
| 5.88 | CC[NH+]1CCC[C@@H]1CNC(=O)c1c(O)c(Br)cc(Br)c1OC |
| 2.12 | Oc1[nH+]cnc2ccccc12 |
| 5.13 | CC1(C(=O)O)CCCCC1 |
| 5.15 | CC/C(C)=C\C(=O)O |
| 10.4 | [S-]c1ncc2nc[nH]c2n1 |
| 7.92 | CN(O)C(=O)c1ccc([N+](=O)[O-])cc1 |
| 12.1 | [O-]c1ncnc2nc[nH]c12 |
| 3.6 | O=C(O)/C=C/C(=O)CC(=O)CC(=O)O |
| 3.2 | CC(=O)N1C[C@@]2(C(C)C)OC(=O)C[C@H]2[C@@H]1C(=O)O |
| 10.5 | [O-]c1nc(NO)cc[n+]1[C@H]1O[C@@H](CO)[C@H](O)[C@@H]1O |
| 9.84 | O=C(Oc1cccc([N+](=O)[O-])c1)C1c2ccccc2-c2ccccc21 |

| pKa | Compound |
| --- | --- |
| 4 | Cc1nonc1NS(=O)(=O)c1ccc(N)cc1 |
| 11.1 | CC(=S)Nc1ccc(Cl)cc1 |
| 7.98 | O=S(=O)(Nc1ccccc1)c1ccc(Cl)cc1 |
| 4.19 | Cc1ccccc1C(O)C(C(=O)O)c1ccc(-c2ccccc2)cc1 (stereo unspecified) |
| 5.17 | Cn1nc(/N=N/O)nc1Cl |
| 8.63 | NS(=O)(=O)c1ccc([N+](=O)[O-])cc1 |
| 8.3 | O=C1NC(=O)C2(CCOc3ccc(F)cc32)N1 (stereo unspecified) |
| 6.61 | O=Cc1cccc(Cl)c1O |
| 3.57 | O=C(O)C1CC1(Br)Br (stereo unspecified) |
| 8.2 | O=S(=O)(Nc1ccccn1)c1ccccc1 |
| 11.6 | O=C([O-])/C(=N/O)c1ccccc1 |
| 1.59 | O=[N+]([O-])c1n[nH]c(-n2cnc(Cl)n2)n1 |
| 9.21 | O/N=C/c1ccccc1O |
| 3.76 | CC1(C)[C@@H]2CC[C@]1(C)C(=O)C2C(=O)O (stereo partly specified) |
| 4.4 | CC1=C(C)C(C(C)C(=O)O)CC1=O (stereo unspecified) |
| 10.2 | c1nc(NC2CCCCC2)c2[nH]cnc2n1 |
| 1.9 | Nc1nc2c(ncn2[C@H]2O[C@@H](CO)[C@H](O)[C@@H]2O)c(O)[nH+]1 |
| 10.7 | CCOC(=O)C1CCCC1=O (stereo unspecified) |
| 8.64 | Oc1cccc2c1-c1ccccc1-2 |
| 8.71 | O=C(NO)c1ccccc1 |
| 4.6 | O=C(O)CCC(=O)NOCc1ccccc1 |
| 7.7 | O=C(NO)c1cccc2ccccc12 |
| 8.99 | CCn1cccc(O)c1=O |

| Compound | pKa |
| --- | --- |
| O=[N+]([O-])c1ccc(S)c([N+](=O)[O-])c1 | 3.4 |
| Nc1c[nH]nc1[N+](=O)[O-] | 9.5 |
| O=P1(O)CCCCC1 | 2.73 |
| O=C(O)[C@@]1(Cl)[C@@H]2CCC[C@@H]21 | 3.03 |
| c1nnn[nH]1 | 4.84 |
| Cn1nc([N+](=O)[O-])nc1NN=O | 3.22 |
| Oc1ccc(O)c2ccccc12 | 9.25 |
| Cc1ccccc1[Se]CC(=O)O | 3.79 |

same assay, conditions: basic group

| pKa | Compound |
| --- | --- |
| 9.87 | Cc1ccc(OC(=O)CCCCN(C)C)cc1 |
| 9.53 | CN(C)CCN |
| 6.03 | Nc1cncnc1N |
| 9.71 | CCOC(=O)CCCN |
| 7.2 | CNc1c2ccccc2nc2cccc([N+](=O)[O-])c12 |
| 6.55 | CCC(C)(C)Nc1ccccc1 |

| Compound | pKa |
| --- | --- |
| Nc1cccc(Cl)c1 | 3.59 |
